In ChEMBL document CHEMBL4396974, “Synthesis and evaluation of a novel quinoline-triazole analogs for antitubercular properties via molecular hybridization approach” (Bioorg Med Chem Lett, 2019):
In brackets after ≈: the same amount, converted by molar mass. Activity calls are given as the source filed them. The rule behind the calls is not given here.

System: Mycobacterium tuberculosis variant bovis
Experiment: Antimycobacterial activity against Mycobacterium bovis assessed as 90 percent growth inhibition measured after 120 hrs by turbidometric analysis
Type: functional

Structure (SMILES) | MIC90
CCCCCCCc1cn(C(c2ccccc2)c2cc3cc(Br)ccc3nc2OC)nn1 (configuration not stated) | 71.9 µM (≈ 35.5 µg/mL)
COc1nc2ccc(Br)cc2cc1C(c1ccccc1)n1cc(-c2ccc(Br)cc2)nn1 (configuration not stated) | 49 µM (≈ 27 µg/mL)
CCCCc1cn(C(c2ccccc2)c2cc3cc(Br)ccc3nc2OC)nn1 (configuration not stated) | 50.2 µM (≈ 22.7 µg/mL)
NNC(=O)c1ccncc1 [ISONIAZID] | 12.5 µM (≈ 1.72 µg/mL)
CO[C@H]1/C=C/O[C@@]2(C)Oc3c(C)c(O)c4c(O)c(c(/C=N/N5CCN(C)CC5)c(O)c4c3C2=O)NC(=O)/C(C)=C\C=C\[C@H](C)[C@H](O)[C@@H](C)[C@@H](O)[C@@H](C)[C@H](OC(C)=O)[C@@H]1C [RIFAMPIN] | 2.2 µM (≈ 1.81 µg/mL)
CCCCCCCCc1cn(C(c2ccccc2)c2cc3cc(Br)ccc3nc2OC)nn1 (configuration not stated) | 34.9 µM (≈ 17.7 µg/mL)
CCOC(=O)c1cn(C(c2ccccc2)c2cc3cc(Br)ccc3nc2OC)nn1 (configuration not stated) | inactive
COc1nc2ccc(Br)cc2cc1C(c1ccccc1)n1cc(CCO)nn1 (configuration not stated) | 133 µM (≈ 58.3 µg/mL)
COc1nc2ccc(Br)cc2cc1C(c1ccccc1)n1cc(CO)nn1 (configuration not stated) | 131 µM (≈ 55.7 µg/mL)
COc1nc2ccc(Br)cc2cc1C(c1ccccc1)n1cc(CCCO)nn1 (configuration not stated) | inactive
COc1nc2ccc(Br)cc2cc1[C@@H](c1ccccc1)[C@@](O)(CCN(C)C)c1cccc2ccccc12 [BEDAQUILINE] | 0.15 µM (≈ 0.0833 µg/mL)
COc1nc2ccc(Br)cc2cc1C(c1ccccc1)n1cc(-c2cccc(F)c2)nn1 (configuration not stated) | 31.4 µM (≈ 15.3 µg/mL)
CCCCCCc1cn(C(c2ccccc2)c2cc3cc(Br)ccc3nc2OC)nn1 (configuration not stated) | 44.4 µM (≈ 21.3 µg/mL)
CCCc1cn(C(c2ccccc2)c2cc3cc(Br)ccc3nc2OC)nn1 (configuration not stated) | 45.2 µM (≈ 19.8 µg/mL)
COc1nc2ccc(Br)cc2cc1C(c1ccccc1)n1cc(-c2ccc(F)cc2)nn1 (configuration not stated) | inactive
COc1nc2ccc(Br)cc2cc1C(c1ccccc1)n1cc(-c2ccccc2C(F)(F)F)nn1 (configuration not stated) | 174 µM (≈ 93.8 µg/mL)
COc1nc2ccc(Br)cc2cc1C(c1ccccc1)n1cc(-c2ccc(OC(F)(F)F)cc2)nn1 (configuration not stated) | 41 µM (≈ 22.8 µg/mL)
COc1nc2ccc(Br)cc2cc1C(c1ccccc1)n1cc(C2CC2)nn1 (configuration not stated) | inactive
COc1nc2ccc(Br)cc2cc1C(c1ccccc1)n1cc(-c2ccccc2)nn1 (configuration not stated) | 161 µM (≈ 75.7 µg/mL)
COc1nc2ccc(Br)cc2cc1C(c1ccccc1)n1cc(CCCCCO)nn1 (configuration not stated) | 59.6 µM (≈ 28.7 µg/mL)
COc1nc2ccc(Br)cc2cc1C(c1ccccc1)n1cc(-c2ccccc2F)nn1 (configuration not stated) | inactive
CCCCCc1cn(C(c2ccccc2)c2cc3cc(Br)ccc3nc2OC)nn1 (configuration not stated) | 80.9 µM (≈ 37.7 µg/mL)
